Target: NavSp pore (Ruegeria pomeroyi, UniProt Q6TMY8)
Conditions: drug added to both sides of bilayer; 0.5 M NaCl, 10 mM HEPES, pH 7.4; room temperature; POPE:POPG 1:1

Chain of NavSp pore (Q6TMY8 114-258 limits assumed): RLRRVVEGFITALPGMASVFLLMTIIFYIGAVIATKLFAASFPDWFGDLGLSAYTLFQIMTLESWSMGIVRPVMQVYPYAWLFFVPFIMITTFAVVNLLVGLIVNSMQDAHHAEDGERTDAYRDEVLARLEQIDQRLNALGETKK

IC50: 2950 nM
SMILES: COC(=O)C1=C(C)NC(C)=C(C(=O)OC)C1c1ccccc1[N+](=O)[O-] [nifedipine]

Reference: article PMC4493117, “Characterization of the Prokaryotic Sodium Channel NavSp Pore with a Microfluidic Bilayer Platform” (PLoS ONE, 2015)
